# Measurements: US7541463B2, “Sulfur-containing naphthalimide derivatives” (East China University of Science and Technology, priority 2003, dated 2009)
# How the values were obtained:
# [1] = test system: mice leukemia cell P388; experiment: Growth inhibition of P388 cells, MTT assay; type: cell-based; settings: Mus musculus, read-out: Growth inhibition effect to P388 cell strain; for inhibition at 100 µM: 10^−4 M; for inhibition at 10 µM: 10^−5 M; for inhibition at 1 µM: 10^−6 M; for inhibition at 0.1 µM: 10^−7 M; for inhibition at 0.01 µM: 10^−8 M
# Method: (§1) The cell growth inhibition of mice leukemia cell P388 was evaluated by MTT (microculture tetrozolium) assay, while the cell growth inhibition of human lung adenocarcinoma cell A-549 was evaluated by SRB (Sulforhodamine B) protein staining assay.
# The procedure of MTT assay was as follows: appropriate amount of cells in log phase were seeded in 96-well plates (6000 cells/well, 15000 cells/well, 90ul/well) according to the growing rate. After cultured for 24 h, cells were exposed to serial dilutions of drugs in triplicate (10 ul/well). In addition, wells without cell, and wells without cell but with serial dilutions of drugs in case of using a colored-drug were set for zeroing. Then, the cells were cultured in 5% CO2 humidified incubator at 37° C. for 48 h. After treatment of drugs for 48 h, 20ul MTT (Sigma) which was diluted by normal saline to the concentration of 5 mg/ml was added to each well, 50ul/well 10%SDS-5% isobutanol-0.01% mol/LHCl was added after 4 h. After cultured overnight, absorbance was measured at 570 nm using a multiwell spectrophotometer. The inhibition effect of the compounds in test (percentage of growth inhibition) was calculated for each well: % inhibition=(OD570control cells−OD570treated cells)/OD570control cells×100%.
# (§2) The cell lines used were mice leukemia cell P388, human leukemia cell MOLT-4, human lung adenocarcinoma cell A-549, human gastric adenocarcinoma SGC-7901, human hepatocellular carcinoma BEL-7402 and human embryonal fibroblast WI-38 (commerially available from ATCC).
# (§3) The exposure time to compounds was 48 h-72 h.
# [2] = test system: human lung adenocarcinoma cell A-549; experiment: Growth inhibition of A-549 cells, SRB protein staining assay; type: cell-based; settings: read-out: Growth inhibition effect to A-549 cell strain; for inhibition at 100 µM: A549, 10^−4 M; for inhibition at 10 µM: A549, 10^−5 M; for inhibition at 1 µM: A549, 10^−6 M; for inhibition at 0.1 µM: A549, 10^−7 M; for inhibition at 0.01 µM: A549, 10^−8 M
# Method: as §1
# The procedure of SRB assay was as follows: appropriate amount of cells in log phase were seeded in 96-well plates according to the growing rate (90 ul/well). After cultured for 24 h, cells were exposed to serial dilutions of drugs in triplicate (10 ul/well). In addition, control wells of normal saline in corresponding concentrations and zeroing wells without cell were set. The cells were incubated in 5% CO2 humidified incubator at 37° C. After 72 h, the medium was removed and cells were fixed with cold 10% trichloric acid (TCA) at 4° C. for 1 h. The plates were washed with distilled water 5 times, and stained in room temperature with 4 mg/ml SRB (Sigma, diluted with 1% glacial acetic acid, 100 ul/well) for 15 minutes after air drying. SRB was then washed with 1% acetic acid 5 times. Plates were dried, followed by adding 150 ul/well Tris solution. Absorbance was measured at […] using a multiwell spectrophotometer. The inhibition effect of the compounds in test (percentage of growth inhibition) was calculated for each well: % inhibition=(A540control cells−A540treated cells)/A540control cells×100%.
# as §2, §3
SMILES,melting point,inhibition at 100 µM [1],inhibition at 10 µM [1],inhibition at 1 µM [1],inhibition at 0.1 µM [1],inhibition at 0.01 µM [1],inhibition at 100 µM [2],inhibition at 10 µM [2],inhibition at 1 µM [2],inhibition at 0.1 µM [2],inhibition at 0.01 µM [2]
O=C(ON1C(=O)c2cccc3cccc(c23)C1=S)c1ccc(Cl)cc1 [compound 26],182 to 183 °C,,,,,,,,,,
"O=C1c2cccc3c2c(cc2nnsc23)C(=O)N1CCN1CCNCC1 [compound 14, 5-(2′-piperazinylethyl)-4H, 6H-benzo[de]-1,2,3,-thiadiazol[5,4-g]isoquinoline-4,6-diketone]",145 to 146 °C,98.8%,90.8%,16.8%,13.7%,18.4%,95.9%,96.1%,87.3%,60.2%,4.4%
O=C(ON1C(=O)c2cccc3cccc(c23)C1=S)c1ccco1 [compound 34],209 to 211 °C,,,,,,,,,,
Cc1cc(C)cc(C(=O)ON2C(=O)c3cccc4cccc(c34)C2=S)c1 [compound 31],216 to 218 °C,,,,,,,,,,
COc1ccc(C(=O)ON2C(=O)c3cccc4cccc(c34)C2=S)cc1OC [compound 32],221 to 223 °C,,,,,,,,,,
"O=c1c2ccc3sc4ccccc4c4ccc(c(=O)n1CCN1CCNCC1)c2c34 [compound 3, N-(2′-piperazinylethyl)benzo[k, l]thioxanthene-3,4-dicarboximide]",286 to 287 °C,100%,100%,22.2%,0%,0%,78.6%,92.4%,69.8%,4.7%,0%
C=C(C)C(CCn1c(=O)c2ccc3sc4ccccc4c4ccc(c1=O)c2c34)OO (stereo not drawn) [compound 22],210 to 211 °C,,,,,,,,,,
O=C(ON1C(=O)c2cccc3cccc(c23)C1=S)c1ccccc1 [compound 24],189 to 190 °C,,,,,,,,,,
O=C(ON1C(=O)c2cccc3cccc(c23)C1=S)c1ccc(Cl)cc1F [compound 30],208 to 210 °C,,,,,,,,,,

# Now from value to molecule, other results behind:
melting point,SMILES,inhibition at 100 µM [1],inhibition at 10 µM [1],inhibition at 1 µM [1],inhibition at 0.1 µM [1],inhibition at 0.01 µM [1],inhibition at 100 µM [2],inhibition at 10 µM [2],inhibition at 1 µM [2],inhibition at 0.1 µM [2],inhibition at 0.01 µM [2]
240 to 241 °C,"CN(C)CCN1C(=O)c2cccc3c2c(cc2nc(-c4ccccc4O)sc23)C1=O [compound 8, N-(N′,N′-dimethylaminoethyl)-4H, 6H-9-o-hydroxyphenyl-benzo[de]thiazol[5,4-g]isoquinoline-4,6-diketone]",94.8%,45.9%,24.9%,10%,8.8%,95.2%,59.6%,18.6%,1%,0.2%
220 to 221 °C,"CN(C)CCN1C(=O)c2cccc3c2c(cc2nc(-c4ccccc4)sc23)C1=O [compound 5, N-(N′,N′-dimethylaminoethyl)-4H, 6H-9-phenyl-benzo[de]thiazol[5,4-g]isoquinoline-4,6-diketone]",96.6%,87.7%,48.2%,21.1%,8.1%,94.8%,91.5%,73%,69.7%,17.8%
168 to 170 °C,"CN(C)CCCN1C(=O)c2cccc3c2c(cc2c4ccccc4sc32)C1=O [compound 18, N-(N′,N′-dimethylaminopropyl)benzo[b]thieno[2,1-c] naphthalimide]",100%,100%,29.8%,17.1%,5.5%,95.3%,96.9%,81.1%,47.2%,1.7%
177 to 179 °C,"CCCCN1C(=O)c2cccc3c2c(cc2nnsc23)C1=O [compound 12, 5-butyl-4H, 6H-benzo[de]-1,2,3,-thiadiazol[5,4-g]isoquinoline4,6-diketone]",54.3%,23.2%,17.1%,12.3%,15.6%,69.4%,75.2%,0%,2.3%,0%
202 to 203 °C,CC(C)=CCCn1c(=O)c2ccc3sc4ccccc4c4ccc(c1=O)c2c34 [compound 23],,,,,,,,,,
207 to 208 °C,CC(C)=CCN1C(=O)c2cccc3c2c(cc2c4ccccc4sc32)C1=O [compound 21],,,,,,,,,,
101 to 102 °C,"CN(C)CCCN1C(=O)c2cccc3c2c(cc2nnsc23)C1=O [compound 13, 5-(N′,N′-dimethylaminopropyl)-4H, 6H-benzo[de]-1,2,3,-thiadiazol[5,4-g]isoquinoline-4,6-diketone]",99.5%,89.2%,19.8%,11%,14.5%,95.9%,94.4%,90.6%,0%,0%
170 to 172 °C,"CCCCN1C(=O)c2cccc3c2c(cc2c4ccccc4sc32)C1=O [compound 15, N-butylbenzo[b] thieno[2,1-c]naphthalimide]",51.8%,26%,3.2%,3.2%,5.8%,94%,45.6%,0%,0%,0%
95 to 97 °C,C=C(C)C(O)CN1C(=O)c2cccc3c2c(cc2c4ccccc4sc32)C1=O (stereo not drawn) [compound 20],,,,,,,,,,
202 to 203 °C,"Cc1ccc(-c2nc3cc4c5c(cccc5c3s2)C(=O)N(CCN(C)C)C4=O)cc1 [compound 6, N-(N′,N′-dimethylaminoethyl)-4H, 6H-9-p-methylphenyl-benzo[d, e]thiazol[5,4-g]isoquinoline4,6-diketone]",96%,74.7%,47.7%,29.3%,13%,95.8%,92.3%,52.7%,31.5%,7.1%
235 to 237 °C,"CN(C)CCN1C(=O)c2cccc3c2c(cc2nc(-c4ccccc4Cl)sc23)C1=O [compound 10, N-(N′,N′-dimethylaminoethyl)-4H, 6H-9-o-chlorophenyl-benzo[de]thiazol[5,4-g]isoquinoline-4,6-diketone]",96.1%,89%,64.6%,40.5%,7.3%,91.4%,93.4%,94.5%,35.7%,12.5%
226 to 228 °C,"O=C1c2cccc3c2c(cc2c4ccccc4sc32)C(=O)N1CCN1CCNCC1 [compound 17, N-(2′-piperazinylethyl)benzo[b]thieno[2,1-c] naphthalimide]",100%,100%,23.9%,4.5%,2%,91.1%,95.4%,46.8%,0%,1.7%
174 to 175 °C,C=C(C)C(CN1C(=O)c2cccc3c2c(cc2c4ccccc4sc32)C1=O)OO (stereo not drawn) [compound 19],,,,,,,,,,
